Results as given in EP2487185A1, “Hexapeptide with improved activity in the repair of cellular DNA of dermal cells” (Clinuvel Pharmaceuticals Limited, priority 2011, dated 2012).
Non-standard residues stand in square brackets, D forms with d. Nle = CCCC[C@H](N)C(=O)O

What was measured:
human melanocytes = assay: DNA damage as measured by 8-oxo-dG (FITC-conjugated 8-oxo-dG antibody immunofluorescence); format: cell-based; conditions: for 8-oxo-dG, Arbitrary units: 37 Celsius, mean fluorescence intensity
Excerpt: DNA damage of cultured melanocytes following UV irradiation leads to consistent levels of photoproducts such as 8-oxo-dG. It is well established in the art (dermal carcinogenesis) that 8-oxodG is a major form of UV induced oxidative DNA damage, which results from the generation of reactive oxygen species (ROS). The induction of 8-oxodG by 8-oxo-dGTP can be inhibited by pyrophosphohydrolases (8-[…]) that convert it to 8-oxo-dGMP. To elucidate the involvement of 8-oxo-[…] in carcinogenesis, an assay of the 8-oxo-[…] activity was used (Sigma Chemical Co. (USA) as well as a conjugated 8-oxo-dG antibodies (OxoDNA Assay Kit; Calbiochem/EMD Biosciences). Melanocytes were plated onto coverslips, and treated 48 h thereafter for 4 days prior to, and immediately after irradiation with 0 or 105 mJ/cm^2 UV, 0.1-10.0 nM α-MSH, with 0 (control) or 0.1-10.0 nM α-MSH, or 0.001-10 nM NDP-MSH or 0.001-10.0 nM CUV 9900. Two hours after UV exposure, cells were fixated with 4% paraformaldehyde in PBS, hydrated in increasing concentrations of cold methanol, and permeabilized in 99% methanol for 30 min at 4 °C. Melanocytes were incubated in blocking solution at 37 °C for 1 h and then with FITC-conjugated 8-oxo-dG antibody, or mouse IgG as a negative control, at 37 °C for 1 h. The IgG controls were then incubated with FITC-conjugated anti-mouse antibody. Immunofluorescence was detected using a microscope with FITC filters. Data were expressed as the mean fluorescence intensity ±S.E., determined using the densitometry values from 6-8 randomly obtained images, using the computer assisted program Alpha Inotech Imaging System and the AlphaEase FC StandAlone Software.

Melanocytes = assay: DNA damage as measured by cyclobutane pyrimidine dimers (CPD), flow cytometry; format: cell-based, human; conditions: 48 h after 105 mJ/cm^2 UV; 10 nM α-MSH, 1 nM NDP-MSH or 1 nM CUV9900, 4 days prior to and 2 days after UV
Procedure: Cyclobutane pyrimidine dimers (CPD), the major determinant of UV induced DNA photoproducts, were detected using flow cytometry analysis.
Melanocytes were pretreated with 0 (control), 10 nM α-MSH or 1 nM NDP-MSH or 1 nM CUV9900 for 4 days prior to, and 2 days after exposure to 105 mJ/cm^2 UV, harvested 48 hours post irradiation, fixated with 70% ethanol, the DNA denatured with 1N HCl/0.2 mg/ml pepsin, then renaturated with sodium tetraborate. Melanocytes were blocked and incubated overnight at 4°C with the anti-CPD antibody (diluted 1:500; TDM-2 clone), then with goat anti-mouse IgG Alexa Fluor 488 (Invitrogen, Carlsbad CA) for 1 hour, and finally resuspended in PBS containing RNase A and propidium iodide. Melanocytes were analyzed on a Coulter EPICS XL flow cytometer (Beckman Coulter) using a 488nm argon ion laser A 525 band pass filter was used for the Alexa fluor 488 and a 620 band pass filter for the propidium iodide.

melanocytes strain 105c = assay: cAMP levels (125I radioimmunoassay), dose-response; format: cell-based, human; conditions: 45 min, 0.1 mM IBMX
Procedure: (§1) Dose-response experiments were carried out on three melanocytic strains, namely strains 1513c, 1505b and 105c melanocytes were treated with 1 pM-10 nM CUV9900 or NDP-MSH, or with 0.1-10 nM MSH for 45 minutes in the presence of 0.1 mM isobutyl methylxanthine (IBMX). The results obtained from strain 1513c are shown in Fig. 3, the results obtained from strain 1505b are shown in Fig. 5a and the results obtained from strain 105c are shown in Fig. 5b. The strains 1505b and 1513c were obtained from the same human adult while the strain 105c was obtained from another human adult. Cyclic AMP is the second messenger for the melanocortin-1 receptor, and assessment is usually performed indicating cellular activity reflective of melanogenesis. Cyclic AMP levels were determined using ^125I-labeled radioimmunoassay kit (Perkin Elmer, Waltham, MA), in human melanocytes that were treated with 0 (control), 0.1-10.0 nM α-MSH, or 0.001-10 nM NDP-MSH or 0.001-10.0 nM CUV 9900 for 45 min. in the presence of 0.1 mM IBMX, a phosphodiesterase inhibitor to prevent cAMP degradation. Triplicate wells were included in each group, and duplicate samples from each well were assayed for cAMP levels. Each data point is the mean percent of control of 6 determinations/group ±S.E.

melanocytes strain 1505b = assay: cAMP levels (125I radioimmunoassay), dose-response; format: cell-based, human; conditions: at 1 nM, 45 min, 0.1 mM IBMX
Procedure: as §1

melanocyte strain 102b = assay: Tyrosinase activity, dose-response, 6 days treatment; format: cell-based, human
Procedure: Cell numbers as well as tyrosinase activity were then determined. Tyrosinase activity was calculated first at activity/10^6 cells, and then as % of control. Twenty-four hours prior the end of the experiment, melanocytes received ^3H-tyrosinase (0.7 µCi/ml medium). The conditioned medium from each dish was collected to be assayed for tyrosinase activity, and the cell numbers were determined using a Coulter Counter. Triplicate dishes were included in each group, and duplicate samples from each dish were assayed for tyrosinase activity. Each data point is the mean percent of control of 6 determinations/group ±S.E.

strains 1505b and 1513c = assay: Tyrosinase activity as a measure of stability, overall; format: cell-based, human
Procedure: With continued reference to Figs. 7, 8 and 9, to determine the stability of CUV9900 versus that of NDP-MSH and α-MSH, melanocytes were treated with 1 nM of each peptide, namely with CUV9900, NDP-MSH and α-MSH, for a total of 6 days, or with 1 nM peptides that were incubated for 5 hours at 37 °C prior to addition to the cultures, every other day, for a total of 6 days. Tyrosinase activity was measured at the end of treatment. In the experiments, cell number represents the mean percent of control of 3 determinations/ group ±SE, and tyrosinase activity data represent the mean percent of control of 6 determinations ±S.E. It should be noted that for the sake of reproducibility the experiment of strain 1513c of Fig. 9 was performed once more 6 months later than the experiment of Fig. 7.
Melanocytes were treated for 3 days with the designated concentrations of CUV9900, NDP-MSH, or MSH, then maintained in absence of peptides for 4 days. Tyrosinase activity was determined 3 days after treatment.

[1] = test system: lightly pigmented strain 1563c and strain 102b; assay: Ultrastructural visualization of DOPA-stained HM (electron microscopy); format: cell-based, human; conditions: 0.1 nM or 1 nM CUV9900 or 1 nM MSH; strains 1563c and 102b
Procedure: With reference to Figs. 14 and 15, two melanocytic strains, a lightly pigmented strain 1563c of Fig. 14 and strain 102b of Fig. 15 were plated in 4-well chamber slides and treated […] with either 0.1 nM or 1 nM CUV9900 or 1 nM MSH for a total of 6 days. Cells were processed for electron microscopy in the presence or absence of histochemical reaction with DOPA. Microtome sections were analyzed in a JEOL JEM-1230 transmission electron microscope and photomicrographs (15,000 X) of the perinuclear area and dendrites were taken for each experimental group.

[2] = 75%UVB 25% UVA, 105 mJ/cm^2, 2 h after UV

Substance: Ac-Nle-Glu His-D-Phe-Arg-Trp-NH2 (Ac-[Nle]EH[dF]RW-NH2; SMILES CCCC[C@H](NC(C)=O)C(=O)N[C@@H](CCC(=O)O)C(=O)N[C@@H](Cc1c[nH]cn1)C(=O)N[C@H](Cc1ccccc1)C(=O)N[C@@H](CCCNC(=N)N)C(=O)N[C@@H](Cc1c[nH]c2ccccc12)C(N)=O) [CUV9900, hexapeptide, alpha-MSH analogue]
- less damage than UV alone (8-oxo-dG) (human melanocytes): 120%
- 8-oxo-dG, Arbitrary units (human melanocytes; [2]): 38 a.u.
- 8-oxo-dG, Arbitrary units (human melanocytes; Source None (no UV irradiation)): 30 a.u.
- Absolute values of CPD products (CPD median fluorescence intensity) (Melanocytes): ~11.55
- elevation of cAMP, comparison with NDP (melanocytes strain 105c; 0.01 nM and 0.1 nM): less elevation of cAMP in comparison to 0.01 nM and 0.1 nM NDP
- cAMP, comparison with MSH (melanocytes strain 105c; 0.1 nM, 1 nM and 10 nM): significantly higher than 0.1 nM, 1 nM and 10 nM MSH
- cAMP, potency comparison (melanocytes strain 1505b): more potent than MSH
- minimal effective dose (tyrosinase activity) (melanocyte strain 102b; 6 days treatment): 1 pM
- stimulation of tyrosinase activity, comparison with NDP-MSH (melanocyte strain 102b; subnanomolar concentrations): greater stimulation of tyrosinase activity than NDP-MSH
- superior tyrosinase activity in comparison to MSH (strains 1505b and 1513c): 42.5%
- superior tyrosinase activity in comparison to NDP-MSH (strains 1505b and 1513c): 19.8%
- melanosomes, electron microscopy [1]: increased mature (stage IV) melanosomes in the perinuclear area and more so in dendrites

Substance: Ac-Ser-Tyr-Ser-Nle-Glu-His-D-Phe-Arg-Trp-Gly-Lys-Pro-Val-NH2 [NDP-MSH, reference compound]
- 8-oxo-dG, Arbitrary units (human melanocytes; [2]): 39-40 a.u.
- Absolute values of CPD products (CPD median fluorescence intensity) (Melanocytes): ~12.5
- concentration achieving equal maximal stimulation of tyrosinase (melanocyte strain 102b; 6 days treatment): 1 nM
- minimal effective dose (tyrosinase activity) (melanocyte strain 102b; 6 days treatment): 1 pM
